Experimental data from PubChem BioAssay (NCI).
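The compound was tested at five concentrations on cells cultured in 96-well plates, with a 48-hour exposure period. The concentration for 50% growth inhibition is given as GI50. TGI: total growth inhibition.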

Legend:
Assay in all cases: DTP human tumour cell line panel, 48 h
786-0 renal = test system: 786-0 renal
A498 renal = test system: A498 renal
A549 NSCLC = test system: A549 NSCLC
ACHN renal = test system: ACHN renal
BT-549 breast = test system: BT-549 breast
CAKI-1 renal = test system: CAKI-1 renal
CCRF-CEM leukemia = test system: CCRF-CEM leukemia
COLO 205 colon = test system: COLO 205 colon
DU-145 prostate = test system: DU-145 prostate
EKVX NSCLC = test system: EKVX NSCLC
HCC-2998 colon = test system: HCC-2998 colon
HCT-116 colon = test system: HCT-116 colon
HCT-15 colon = test system: HCT-15 colon
HOP-62 NSCLC = test system: HOP-62 NSCLC
HOP-92 NSCLC = test system: HOP-92 NSCLC
HS 578T breast = test system: HS 578T breast
HT29 colon = test system: HT29 colon
IGROV1 ovarian = test system: IGROV1 ovarian
K-562 leukemia = test system: K-562 leukemia
KM12 colon = test system: KM12 colon
LOX IMVI melanoma = test system: LOX IMVI melanoma
M14 melanoma = test system: M14 melanoma
MALME-3M melanoma = test system: MALME-3M melanoma
MDA-MB-231 breast = test system: MDA-MB-231 breast
MDA-MB-435 = test system: MDA-MB-435
MOLT-4 leukemia = test system: MOLT-4 leukemia
NCI-H226 lung = test system: NCI-H226 lung
NCI-H23 lung = test system: NCI-H23 lung
NCI-H460 lung = test system: NCI-H460 lung
NCI-H522 lung = test system: NCI-H522 lung
NCI/ADR-RES ovarian = test system: NCI/ADR-RES ovarian
OVCAR-3 ovarian = test system: OVCAR-3 ovarian
OVCAR-4 ovarian = test system: OVCAR-4 ovarian
OVCAR-5 ovarian = test system: OVCAR-5 ovarian
OVCAR-8 ovarian = test system: OVCAR-8 ovarian
PC-3 prostate = test system: PC-3 prostate
RPMI-8226 leukemia = test system: RPMI-8226 leukemia
RXF 393 renal = test system: RXF 393 renal
SF-268 CNS = test system: SF-268 CNS
SF-295 CNS = test system: SF-295 CNS
SF-539 CNS = test system: SF-539 CNS
SK-MEL-2 melanoma = test system: SK-MEL-2 melanoma
SK-MEL-28 melanoma = test system: SK-MEL-28 melanoma
SK-MEL-5 melanoma = test system: SK-MEL-5 melanoma
SK-OV-3 ovarian = test system: SK-OV-3 ovarian
SN12C renal = test system: SN12C renal
SNB-19 CNS = test system: SNB-19 CNS
SNB-75 CNS = test system: SNB-75 CNS
SR leukemia = test system: SR leukemia
SW-620 colon = test system: SW-620 colon
T-47D breast = test system: T-47D breast
TK-10 renal = test system: TK-10 renal
U251 CNS = test system: U251 CNS
UACC-257 melanoma = test system: UACC-257 melanoma
UACC-62 melanoma = test system: UACC-62 melanoma
UO-31 renal = test system: UO-31 renal

With `C=C1C(=O)O[C@H]2[C@H]1CC/C(COC(=O)NCc1c[nH]c3ccc(Br)cc13)=C\CC[C@@]1(C)O[C@@H]21` the GI50 (786-0 renal) was 0.841 µM, the TGI (786-0 renal) was 2.36 µM and the GI50 (A498 renal) was 1.67 µM. It also gave a TGI (A498 renal) of 3.25 µM, a GI50 (A549 NSCLC) of 1.75 µM and a TGI (A549 NSCLC) of 3.65 µM. The GI50 (ACHN renal) was 1.28 µM, the TGI (ACHN renal) was 2.58 µM and the GI50 (BT-549 breast) was 1.29 µM. The TGI (BT-549 breast) was 2.92 µM, the GI50 (CAKI-1 renal) was 1.51 µM and the TGI (CAKI-1 renal) was 2.94 µM. The GI50 (CCRF-CEM leukemia) was 0.315 µM, the TGI (CCRF-CEM leukemia) was 1.58 µM and the GI50 (COLO 205 colon) was 0.884 µM. The TGI (COLO 205 colon) was 2.32 µM, the GI50 (DU-145 prostate) was 1.11 µM and the TGI (DU-145 prostate) was 2.58 µM. For the same compound, the GI50 (EKVX NSCLC) was 1.58 µM, the TGI (EKVX NSCLC) was 3.05 µM and the GI50 (HCC-2998 colon) was 1.79 µM. For the same compound, the TGI (HCC-2998 colon) was 3.3 µM, the GI50 (HCT-116 colon) was 0.619 µM and the TGI (HCT-116 colon) was 1.98 µM. For the same compound, the GI50 (HCT-15 colon) was 0.461 µM, the TGI (HCT-15 colon) was 1.87 µM and the GI50 (HOP-62 NSCLC) was 1.52 µM. For the same compound, the TGI (HOP-62 NSCLC) was 3.35 µM, the GI50 (HOP-92 NSCLC) was 1.58 µM and the TGI (HOP-92 NSCLC) was 3.17 µM. For the same compound, the GI50 (HS 578T breast) was 2.17 µM, the TGI (HS 578T breast) was 7.09 µM and the GI50 (HT29 colon) was 0.794 µM. For the same compound, the TGI (HT29 colon) was 2.26 µM, the GI50 (IGROV1 ovarian) was 1.45 µM and the TGI (IGROV1 ovarian) was 2.97 µM. The GI50 (K-562 leukemia) was 0.292 µM, the TGI (K-562 leukemia) was 1.53 µM and the GI50 (KM12 colon) was 2.23 µM. It also gave a TGI (KM12 colon) of 5.07 µM, a GI50 (LOX IMVI melanoma) of 0.701 µM and a TGI (LOX IMVI melanoma) of 2.05 µM. For the same compound, the GI50 (M14 melanoma) was 1.35 µM, the TGI (M14 melanoma) was 3.07 µM and the GI50 (MALME-3M melanoma) was 1.84 µM. It also gave a TGI (MALME-3M melanoma) of 3.53 µM, a GI50 (MDA-MB-231 breast) of 1.49 µM and a TGI (MDA-MB-231 breast) of 3.07 µM. The GI50 (MDA-MB-435) was 1.12 µM, the TGI (MDA-MB-435) was 2.55 µM and the GI50 (MOLT-4 leukemia) was 1.7 µM. It also gave a TGI (MOLT-4 leukemia) of 5.51 µM, a GI50 (NCI-H226 lung) of 1.55 µM and a TGI (NCI-H226 lung) of 3.07 µM. It also gave a GI50 (NCI-H23 lung) of 1.66 µM, a TGI (NCI-H23 lung) of 3.35 µM and a GI50 (NCI-H460 lung) of 1.88 µM. For the same compound, the TGI (NCI-H460 lung) was 4.04 µM, the GI50 (NCI-H522 lung) was 0.589 µM and the TGI (NCI-H522 lung) was 2.05 µM. It also gave a GI50 (NCI/ADR-RES ovarian) of 3.04 µM, a TGI (NCI/ADR-RES ovarian) of 12.4 µM and a GI50 (OVCAR-3 ovarian) of 1.01 µM. It also gave a TGI (OVCAR-3 ovarian) of 2.29 µM, a GI50 (OVCAR-4 ovarian) of 1.45 µM and a TGI (OVCAR-4 ovarian) of 3.35 µM. The GI50 (OVCAR-5 ovarian) was 1.76 µM, the TGI (OVCAR-5 ovarian) was 3.78 µM and the GI50 (OVCAR-8 ovarian) was 1.35 µM. It also gave a TGI (OVCAR-8 ovarian) of 3.48 µM, a GI50 (PC-3 prostate) of 1.51 µM and a TGI (PC-3 prostate) of 3.12 µM. For the same compound, the GI50 (RPMI-8226 leukemia) was 0.752 µM, the TGI (RPMI-8226 leukemia) was 3.57 µM and the GI50 (RXF 393 renal) was 1.25 µM. The TGI (RXF 393 renal) was 2.59 µM, the GI50 (SF-268 CNS) was 1.61 µM and the TGI (SF-268 CNS) was 3.41 µM. It also gave a GI50 (SF-295 CNS) of 1.6 µM, a TGI (SF-295 CNS) of 3.29 µM and a GI50 (SF-539 CNS) of 1.66 µM. The TGI (SF-539 CNS) was 3.13 µM, the GI50 (SK-MEL-2 melanoma) was 1.35 µM and the TGI (SK-MEL-2 melanoma) was 2.81 µM. For the same compound, the GI50 (SK-MEL-28 melanoma) was 1.72 µM, the TGI (SK-MEL-28 melanoma) was 3.37 µM and the GI50 (SK-MEL-5 melanoma) was 1.63 µM. It also gave a TGI (SK-MEL-5 melanoma) of 2.99 µM, a GI50 (SK-OV-3 ovarian) of 5.87 µM and a TGI (SK-OV-3 ovarian) of 18.5 µM. For the same compound, the GI50 (SN12C renal) was 1.36 µM, the TGI (SN12C renal) was 3.12 µM and the GI50 (SNB-19 CNS) was 2.75 µM. It also gave a TGI (SNB-19 CNS) of 11.3 µM, a GI50 (SNB-75 CNS) of 1.26 µM and a TGI (SNB-75 CNS) of 2.53 µM. For the same compound, the GI50 (SR leukemia) was 0.296 µM, the TGI (SR leukemia) was 10.1 µM and the GI50 (SW-620 colon) was 0.611 µM. For the same compound, the TGI (SW-620 colon) was 2.3 µM, the GI50 (T-47D breast) was 1.24 µM and the TGI (T-47D breast) was 2.99 µM. For the same compound, the GI50 (TK-10 renal) was 1.55 µM, the TGI (TK-10 renal) was 2.93 µM and the GI50 (U251 CNS) was 1.63 µM. The TGI (U251 CNS) was 3.02 µM, the GI50 (UACC-257 melanoma) was 1.44 µM and the TGI (UACC-257 melanoma) was 2.9 µM. The GI50 (UACC-62 melanoma) was 1.31 µM, the TGI (UACC-62 melanoma) was 2.64 µM and the GI50 (UO-31 renal) was 1.38 µM. The TGI (UO-31 renal) was 2.68 µM.
